According to US20090270397A1, “Methods and compositions for the treatment of cancers, such as melanomas and gliomas” (priority 2008, published 2009):
Values belong to the compound of their own block, whether it stands above or below them.

Columns and labels:
[1] = system: human melanoma cell line SK-MEL 19; assay: Screening of Spectrum Collection library for enhancers of TMZ-induced growth inhibition (MTT assay); type: cell-based; conditions: SK-MEL19, 1 μM compound in presence of 50 μg/ml TMZ, 96-well plates, read-out: greater growth inhibition relative to TMZ alone
Procedure: FIGS. 1A and 1B. […] Screening was performed with SK-Mel-19 cells in 96-well plates following by MTT assay. Cells in one set of plate were treated with each library compound alone at 1 μM while cells in the parallel plate were treated with a combination of 1 μM library compound and 50 μg/ml TMZ. Positive candidates were later reconfirmed in triplicate.
A commercial library of 2000 drugs and natural products was screened to identify novel compounds that enhance TMZ-induced growth inhibition in the human melanoma cell line SK-MEL 19. Screening was performed in 96-well plates at final compound concentration of 1 μM, in the absence or presence of 50 μg/ml TMZ, followed by MTT assay (FIG. 1A).

[2] = Further antifolate agents as enhancers of temozolomide activity (FIGS. 9 and 10); type: cell-based; conditions: FIG. 9
Procedure: FIG. 9 is a further graph presenting the results of tests of several antifolate agents as enhancers of anti-neoplastic activity. In the figure, N1 is pterin-6-carboxylic acid, N2 is aminopterin, N3 is amiloride and N4 is N,N-hexamethylene amiloride.
FIG. 10 presents further data from the testing of additional agents for use in accordance with the invention. Thus, TMZ was administered in combination with compounds S1-S14. The compounds tested are as follows: S1-dipyridamole. S2-methotrexate, S3-minoxidil, S4-prazosin hydrochloride, S5-pyrimethamine, S6-triamterene, S7-trimethoprim, S8-aminopterin, S9-pipemidic acid, S10-piromidic acid, S11-famciclovir, S12-alfuzocin, S13-xanthopterin, and S14-leucopterin.
In FIGS. 9 and 10, additional antifolate agents were tested, and the results indicating their activity as enhancers of TMZ activity are set forth.

melanoma cells = assay: Antifolate agents as enhancers of TMZ, MTT assay (FIG. 7); type: cell-based; conditions: 0.01 uM antifolate in combination with TMZ, 72 h
Procedure: FIG. 7 is a graph presenting the results of tests of several antifolate agents as enhancers of anti-neoplastic activity. […] Cells were treated with the indicated dose of TMZ alone, or in combination with 0.01 uM PYR, MTX (Methotrexate), TMP (Trimethoprim), TMTX (Trimetrexate), PTX (Piritrexim), and CYC (Cycloguanil). Cell growth was assessed by MTT assay after 72 h drug treatment.
Among the six “hits” identified from library screening, both PYR and triamterene are antifolate compounds.

SK-MEL 19 cells = assay: MTT cell proliferation/viability assay in SK-MEL 19 melanoma cells; type: cell-based, human; conditions: for sensitization to TMZ (effect on TMZ response curve): SK-MEL 19 cells
Procedure: Dose-response diagrams of SKM-19 cells exposed to TMZ (FIG. 2A) or pyrimethamine (PYR) (FIG. 2B) alone were prepared for comparison. Melanoma cells were exposed to the indicated concentration of TMZ or PYR for 72 hours. Cell growth inhibition was evaluated by the MTT assay. Survival relative to the control is presented as mean±standard error of the mean of at least three experiments (with viability of control cells set at 100%). In FIG. 2C, PYR enhances TMZ efficacy in various cancer cell lines. Cells were treated with indicated concentrations of TMZ or PYR at the same time and left for 72 hours. Cell viability was determined by MTT assay. SK-MeI 19, SK-Mel 100, SK-Mel 173, and SK-Mel 192 are melanoma cell lines; LN-18 and T98G are glioma cell lines. * P<0.05, **P<0.01.
(§1) FIGS. 8A-8C. PYR antifolate activity enhances TMZ chemotherapeutic efficacy. A, the growth inhibitory effects of PYR, DDEP, DDMP, CYC, and the classical antifolate MTX on TMZ response curve were examined by MTT assay in melanoma and glioma cells. […] The cytotoxic effect of the combination of TMZ (25 μg/ml) and PYR (0.5 μM) can be rescued by LV (10 μM) as examined by MTT assay (B) and the level of cleaved PARP (C) in SK-MEL 19 cells. 1. Control; 2. TMZ; 3. PYR; 4. TMZ+PYR; and 5. TMZ+PYR+LV. ** P<0.01, compared to 2, 3, or 5.
(§2) The cell growth and cytotoxicity after treatment with TMZ and/or PYR on melanoma cells and glioma cells was performed using Colorimetric MTT assay for cell survival and proliferation assay (MTT Assay Kit, Promega). Tumor cells were seeded at 3000 cells per well (100 μl volume) in 96-well plates and allowed to attach overnight. After TMZ and PYR treatment for 72 hours, the cells were stained with MTT, which is then converted to dark blue formazan crystals by mitochondrial dehydrogenases in viable cells. The plates were read with a microplate reader by measuring the absorbance of converted MTT at 490 nm. Results were expressed as the OD490 relative to that of untreated cells. Cell viability was also determined by the trypan-blue dye exclusion method.

[3] = system: cleaved PARP in SK-MEL 19 cells; assay: Leucovorin rescue, cleaved PARP level; type: cell-based, human; conditions: 10 μM LV added to cells treated with TMZ/PYR
Procedure: as §1
Leucovorin (N-5-formyltetrahydrofolate, LV, folinic acid), a reduced form of folate, is used widely to specifically reverse the toxic effects of antifolates (27). To further confirm that PYR-enhanced TMZ chemotherapeutic efficacy in melanoma cells was due to the antifolate activity of PYR, 10 μM LV was added to cells treated with TMZ/PYR. LV rescued both the inhibition of cell growth (FIG. 8B) and the increase in apoptotic death induced by TMZ/PYR as measured by the proteolytic cleavage of PARP by caspase-3 (FIG. 8C).

SK-MEL 19 = assay: Cell death by trypan blue dye exclusion; type: cell-based, human; conditions: clinically-relevant concentration of TMZ, PYR 0.5 μM, 72 hours
Procedure: Melanoma cells were exposed to the indicated concentration of TMZ, PYR or both for 72 hours. In FIG. 5A, cell death was evaluated by trypan blue dye exclusion. * P<0.05, compared to 2 or 3. In FIG. 5B, cleaved Caspase-3 was determined by Western blot analysis. 1. Control; 2. TMZ (25 μg/ml); 3. PYR (0.5 μM), and 4. TMZ and PYR combination.
as §2
To investigate whether PYR can enhance the induction of cell death by TMZ, Trypan blue staining was employed to determine the ratio of dead cells versus total cells in SK-MEL 19. […]

[4] = cited from earlier work
[5] = cited from earlier work; remark: listed apart in the source

SMILES: Oc1ccc(Cl)c2cccnc12 [cloxyquin]
inhibition at 1 µM [1]: ≥ 50%

SMILES: NC(N)=NC(=O)c1nc(Cl)c(N2CCCCCC2)nc1N [N4, N,N-hexamethylene amiloride]
enhancement of the antineoplastic activity of temozolomide [2]: favorable enhancement

SMILES: CC1(C)N=C(N)N=C(N)N1c1ccc(Cl)cc1 [CYC, cycloguanil]
enhancement of TMZ efficacy (melanoma cells): enhance TMZ efficacy

SMILES: CN(Cc1cnc2nc(N)nc(N)c2n1)c1ccc(C(=O)N[C@@H](CCC(=O)O)C(=O)O)cc1 [MTX, methotrexate]
sensitization to TMZ (effect on TMZ response curve) (SK-MEL 19 cells; 0.001 μM antifolate, MTT): significant sensitization to TMZ
enhancement of TMZ efficacy (melanoma cells): enhance TMZ efficacy

SMILES: COc1ccc(OC)c(Cc2cnc3nc(N)nc(N)c3c2C)c1 [PTX, Piritrexim]
enhancement of TMZ efficacy (melanoma cells): enhance TMZ efficacy

SMILES: S=C=NCc1ccccc1 [benzyl isothiocyanate]
inhibition at 1 µM [1]: ≥ 50%

SMILES: Cc1nc(N)nc(N)c1-c1ccc(Cl)c(Cl)c1 [DDMP, metoprine]
sensitization to TMZ (effect on TMZ response curve) (SK-MEL 19 cells; 0.005 μM antifolate, MTT): significant sensitization to TMZ

SMILES: COc1cc(Cc2cnc(N)nc2N)cc(OC)c1OC [TMP, Trimethoprim]
enhancement of TMZ efficacy (melanoma cells): enhance TMZ efficacy

SMILES: N=C(N)NC(=O)c1nc(Cl)c(N)nc1N [N3, amiloride]
enhancement of the antineoplastic activity of temozolomide [2]: favorable enhancement

SMILES: CCc1nc(N)nc(N)c1-c1ccc(Cl)c(Cl)c1 [DDEP, etoprine]
sensitization to TMZ (effect on TMZ response curve) (SK-MEL 19 cells; 0.005 μM antifolate, MTT): significant sensitization to TMZ

SMILES: Nc1nc(N)c2nc(-c3ccccc3)c(N)nc2n1 [triamterene]
inhibition at 1 µM [1]: ≥ 50%

SMILES: Nc1nc2c(c(=O)[nH]1)N(C=O)C(CNc1ccc(C(=O)N[C@@H](CCC(=O)O)C(=O)O)cc1)CN2 (some centres unmarked) [LV, N-5-formyltetrahydrofolate]
rescue of increase in apoptotic death induced by TMZ/PYR (proteolytic cleavage of PARP) [3]: rescued
rescue of inhibition of cell growth induced by TMZ/PYR (SK-MEL 19 cells; 10 μM LV added to cells treated with TMZ (25 μg/ml)/PYR (0.5 μM), MTT): rescued

IC50 (SK-MEL 19 cells; Homo sapiens, SK-MEL19, TMZ alone, SK-MEL-19 cells): ~60 µg/mL
SMILES: Cn1nnc2c(C(N)=O)ncn2c1=O [TMZ, temozolomide]
cell death (ratio of dead cells versus total cells) (SK-MEL 19): approximately 15%
clinically achievable serum levels during chemotherapy [4]: 100 µM

SMILES: COc1cc(NCc2ccc3nc(N)nc(N)c3c2C)cc(OC)c1OC [TMTX, Trimetrexate]
enhancement of TMZ efficacy (melanoma cells): enhance TMZ efficacy

SMILES: Nc1nc2ncc(C(=O)O)nc2c(=O)[nH]1 [N1, pterin-6-carboxylic acid]
enhancement of the antineoplastic activity of temozolomide [2]: favorable enhancement

SMILES: [H]/N=C(\N/C(=N/[H])NCCCCCCNC(=N)NC(=N)Nc1ccc(Cl)cc1)Nc1ccc(Cl)cc1 [chlorhexidine]
inhibition at 1 µM [1]: ≥ 50%

SMILES: CCc1nc(N)nc(N)c1-c1ccc(Cl)cc1 [PYR, pyrimethamine]
inhibition at 1 µM [1]: ≥ 50%
blood-brain barrier crossing ([5]; in vivo): easily crosses the blood-brain barrier
oral bioavailability ([5]; oral administration): bioavailable following oral administration
